Reference: patent US7531529B2, “Imidazole derivatives” (Roche Palo Alto LLC, priority 2003, dated 2009)

molecular target: T1, human mGlu5a receptor (Homo sapiens, UniProt P41594); assay: [3H]MPEP competition binding on membranes of EBNA cells transfected with human mGlu5a receptor
T1 construct: expressed in transfected cells; host or cells: EBNA cells (transient transfection); cell membrane homogenates
Method: For binding experiments, cDNA encoding human mGlu5a receptor was transiently transfected into EBNA cells using a procedure described by Schlaeger and Christensen [Cytotechnology 15:1-13 (1998)]. Cell membrane homogenates were stored at −80° C. until the day of assay where upon they were thawed and resuspended and polytronised in 15 mM Tris-HCl, 120 mM NaCl, 100 mM KCl, 25 mM CaCl2, 25 mM MgCl2 binding buffer at pH 7.4 to a final assay concentration of 20 μg protein/ well.
Saturation isotherms were determined by addition of twelve [^3H]MPEP concentrations (0.04-100 nM) to these membranes (in a total volume of 200 μl) for 1 h at 4° C. Competition experiments were performed with a fixed concentration of [^3H]MPEP (2 nM) and IC50 values of test compounds evaluated using 11 concentrations (0.3-10,000 nM). Incubations were performed for 1 h at 4° C.
At the end of the incubation, membranes were filtered onto unifilter (96-well white microplate with bonded GF/C filter preincubated 1 h in 0.1% PEI in wash buffer, Packard BioScience, Meriden, Conn.) with a Filtermate 96 harvester (Packard BioScience) and washed 3 times with cold 50 mM Tris-HCl, pH 7.4 buffer. Nonspecific binding was measured in the presence of 10 μM MPEP. The radioactivity on the filter was counted (3 min) on a Packard Top-count microplate scintillation counter with quenching correction after addition of 45 μl of microscint 40 (Canberra Packard S.A., Zürich, Switzerland) and shaking for 20 min.
The Ki value is defined by the following formula: Ki=IC50/[1+L/Kd] in which the IC50 values are those concentrations of the compounds tested which cause 50% inhibition of the competing radioligand ([^3H]MPEP). L is the concentration of radioligand used in the binding experiment and the Kd value of the radioligand is empirically determined for each batch of membranes prepared.

T1 sequence (P41594 21-1180 isoform P41594-2 limits assumed): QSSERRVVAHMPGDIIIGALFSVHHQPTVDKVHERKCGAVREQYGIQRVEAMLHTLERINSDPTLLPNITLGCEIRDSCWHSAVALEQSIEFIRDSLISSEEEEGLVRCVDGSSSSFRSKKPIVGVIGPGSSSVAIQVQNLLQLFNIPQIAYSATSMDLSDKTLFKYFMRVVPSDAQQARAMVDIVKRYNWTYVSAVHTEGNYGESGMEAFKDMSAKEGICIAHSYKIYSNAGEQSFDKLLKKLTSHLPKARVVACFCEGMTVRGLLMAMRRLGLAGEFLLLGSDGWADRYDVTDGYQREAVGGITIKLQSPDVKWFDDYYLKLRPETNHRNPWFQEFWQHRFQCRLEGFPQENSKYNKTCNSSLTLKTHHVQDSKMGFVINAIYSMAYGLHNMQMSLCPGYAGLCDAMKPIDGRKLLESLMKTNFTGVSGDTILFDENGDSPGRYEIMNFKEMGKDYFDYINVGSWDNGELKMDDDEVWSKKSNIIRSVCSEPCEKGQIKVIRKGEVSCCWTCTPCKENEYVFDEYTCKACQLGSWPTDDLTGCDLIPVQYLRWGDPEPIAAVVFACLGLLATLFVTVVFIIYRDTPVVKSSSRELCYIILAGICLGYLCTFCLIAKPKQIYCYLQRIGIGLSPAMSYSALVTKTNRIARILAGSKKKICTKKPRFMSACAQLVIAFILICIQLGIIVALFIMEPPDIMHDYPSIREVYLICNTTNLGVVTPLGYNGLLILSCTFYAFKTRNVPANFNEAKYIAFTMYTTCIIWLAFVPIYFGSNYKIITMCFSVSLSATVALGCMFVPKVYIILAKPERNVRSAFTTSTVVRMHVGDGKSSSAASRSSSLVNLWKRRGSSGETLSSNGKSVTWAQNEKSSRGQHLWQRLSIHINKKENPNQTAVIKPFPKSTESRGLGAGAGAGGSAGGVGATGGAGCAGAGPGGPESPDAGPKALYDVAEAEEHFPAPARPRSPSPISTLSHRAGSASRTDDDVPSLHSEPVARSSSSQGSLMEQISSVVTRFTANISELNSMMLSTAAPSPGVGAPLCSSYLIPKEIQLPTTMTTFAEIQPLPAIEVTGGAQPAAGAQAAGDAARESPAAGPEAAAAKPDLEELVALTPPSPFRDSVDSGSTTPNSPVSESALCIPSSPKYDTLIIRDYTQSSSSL

Compound | Ki
Cc1nc(C#Cc2ccnc(F)c2)cn1-c1ccc(F)cc1 [Example 2, 2-Fluoro-4-[1-(4-fluoro-phenyl)-2-methyl-1H-imidazol-4-ylethynyl]-pyridine] | 23 nM
Cc1nc(C#Cc2ccnc(Cl)c2)cn1-c1cccc(C(F)(F)F)n1 [Example 5, 2-[4-(2-Chloro-pyridin-4-ylethynyl)-2-methyl-imidazol-1-yl]-6-trifluoromethyl-pyridine] | 21 nM
Cc1nc(C#Cc2ccnc(Cl)c2)cn1-c1cncc(F)c1 [Example 6, 3-[4-(2-Chloro-pyridin-4-ylethynyl)-2-methyl-imidazol-1-yl]-5-fluoro-pyridine] | 63 nM
Cc1nc(C#Cc2ccnc(Cl)c2)cn1-c1ccc(Cl)c(Cl)c1 [Example 8, 2-Chloro-4-[1-(3,4-dichloro-phenyl)-2-methyl-1H-imidazol-4-ylethynyl]-pyridine] | 24 nM
Cc1nc(C#Cc2ccnc(C#N)c2)cn1-c1ccc(F)cc1 [Example 10, 4-[1-(4-Fluoro-phenyl)-2-methyl-1H-imidazol-4-ylethynyl]-pyridine-2-carbonitrile] | 44 nM
Cc1cc(-n2cc(C#Cc3ccnc(Cl)c3)nc2C)ccc1F [Example 18, 2-Chloro-4-[1-(4-fluoro-3-methyl-phenyl)-2-methyl-1H-imidazol-4-ylethynyl]-pyridine] | 25 nM

More lines, now with the values ahead:

Ki | Compound
15 nM | Cc1ccc(-n2cc(C#Cc3ccnc(Cl)c3)nc2C)cc1 [Example 20, 2-Chloro-4-[1-(4-methyl-phenyl)-2-methyl-1H-imidazol-4-ylethynyl]-pyridine]
26 nM | COc1ccc(-n2cc(C#Cc3ccnc(Cl)c3)nc2C)cc1 [Example 22, 2-Chloro-4-[1-(4-methoxy-phenyl)-2-methyl-1H-imidazol-4-ylethynyl]-pyridine]
40 nM | Cc1ccnc(-n2cc(C#Cc3ccnc(Cl)c3)nc2C)n1 [Example 25, 2-[4-(2-Chloro-pyridin-4-ylethynyl)-2-methyl-imidazol-1-yl]-4-methyl-pyrimidine]
12 nM | COc1ccnc(-n2cc(C#Cc3ccnc(Cl)c3)nc2C)n1 [Example 26, 2-[4-(2-Chloro-pyridin-4-ylethynyl)-2-methyl-imidazol-1-yl]-4-methoxy-pyrimidine]
23 nM | Cc1nc(C#Cc2ccnc(Cl)c2)cn1-c1ccnc(C(F)(F)F)n1 [Example 28, 4-[4-(2-Chloro-pyridin-4-ylethynyl)-2-methyl-imidazol-1-yl]-2-trifluoromethyl-pyrimidine]
36 nM | Cc1ccc(-n2cc(C#Cc3ccnc(Cl)c3)nc2C)nc1 [Example 30, 2-[4-(2-Chloro-pyridin-4-ylethynyl)-2-methyl-imidazol-1-yl]-5-methyl-pyridine]
69 nM | Cc1nc(C#Cc2ccnc(C#N)c2)cn1-c1ccc(Cl)nc1 [Example 31, 4-[1-(6-Chloro-pyridin-3-yl)-2-methyl-1H-imidazol-4-ylethynyl]-pyridine-2-carbonitrile]
24 nM | Cc1nc(C#Cc2ccnc(Cl)c2)cn1-c1ccc(C2CC2)nc1 [Example 33, 5-[4-(2-Chloro-pyridin-4-ylethynyl)-2-methyl-imidazol-1-yl]-2-cyclopropyl-pyridine]
